Legend:
Type in all cases: in vivo
Settings in all cases: 250 g/ha, evaluated after 13 days
AMAPA [1] = assay: Pre-emergence biological efficacy, glasshouse
Description: (§1) Seeds of weeds and/or crops were sown in standard soil in pots. After cultivation for one day under controlled conditions in a glasshouse (at 24/19° C., day/night; 16 hours light), the plants were sprayed with an aqueous spray solution derived from the formulation of the technical active ingredient in a small amount of acetone and a special solvent and emulsifier mixture referred to as IF50 (11.12% Emulsogen EL360 TM+44.44% N-methylpyrrolidone+44.44% Dowanol DPM glycol ether), to create a 50 g/I solution which was then diluted using 0.2% Genapol X080 as diluent to give the desired final dose of test compound.
(§2) The test plants were then grown under controlled conditions in the glasshouse (at 24/18° C., day/night; […]; 50% humidity) and watered twice daily. After 13 days the test was evaluated (100=total damage to plant; 0=no damage to plant).

ECHCG [2] = assay: Pre-emergence biological efficacy, glasshouse
Description: as §1, §2

EPHHL [3] = assay: Pre-emergence biological efficacy, glasshouse
Description: as §1, §2

IPOHE [4] = assay: Pre-emergence biological efficacy, glasshouse
Description: as §1, §2

LOLPE [5] = assay: Pre-emergence biological efficacy, glasshouse
Description: as §1, §2

SETFA [6] = assay: Pre-emergence biological efficacy, glasshouse
Description: as §1, §2

AMAPA [7] = assay: Post-emergence biological efficacy, glasshouse
Description: as §1, with “14 days” for “one day”
(§3) The test plants were then grown under controlled conditions in the glasshouse (at 24/18° C., day/night; 15 hours light; 50% humidity) and watered twice daily. After 13 days the test was evaluated (100=total damage to plant; 0=no damage to plant).

CHEAL = assay: Post-emergence biological efficacy, glasshouse
Description: as §1, with “14 days” for “one day”
as §3

DIGSA = assay: Post-emergence biological efficacy, glasshouse
Description: as §1, with “14 days” for “one day”
as §3

ECHCG [8] = assay: Post-emergence biological efficacy, glasshouse
Description: as §1, with “14 days” for “one day”
as §3

ELEIN = assay: Post-emergence biological efficacy, glasshouse
Description: as §1, with “14 days” for “one day”
as §3

EPHHL [9] = assay: Post-emergence biological efficacy, glasshouse
Description: as §1, with “14 days” for “one day”
as §3

IPOHE [10] = assay: Post-emergence biological efficacy, glasshouse
Description: as §1, with “14 days” for “one day”
as §3

LOLPE [11] = assay: Post-emergence biological efficacy, glasshouse
Description: as §1, with “14 days” for “one day”
as §3

SETFA [12] = assay: Post-emergence biological efficacy, glasshouse
Description: as §1, with “14 days” for “one day”
as §3

Structure (SMILES) | damage to plant (100=total damage to plant; 0=no damage to plant), AMAPA (AMAPA [1]) | damage to plant (100=total damage to plant; 0=no damage to plant), ECHCG (ECHCG [2]) | damage to plant (100=total damage to plant; 0=no damage to plant), EPHHL (EPHHL [3]) | damage to plant (100=total damage to plant; 0=no damage to plant), IPOHE (IPOHE [4]) | damage to plant (100=total damage to plant; 0=no damage to plant), LOLPE (LOLPE [5]) | damage to plant (100=total damage to plant; 0=no damage to plant), SETFA (SETFA [6]) | damage to plant (100=total damage to plant; 0=no damage to plant), AMAPA (AMAPA [7]) | damage to plant (100=total damage to plant; 0=no damage to plant), CHEAL (CHEAL) | damage to plant (100=total damage to plant; 0=no damage to plant), DIGSA (DIGSA) | damage to plant (100=total damage to plant; 0=no damage to plant), ECHCG (ECHCG [8]) | damage to plant (100=total damage to plant; 0=no damage to plant), ELEIN (ELEIN) | damage to plant (100=total damage to plant; 0=no damage to plant), EPHHL (EPHHL [9]) | damage to plant (100=total damage to plant; 0=no damage to plant), IPOHE (IPOHE [10]) | damage to plant (100=total damage to plant; 0=no damage to plant), LOLPE (LOLPE [11]) | damage to plant (100=total damage to plant; 0=no damage to plant), SETFA (SETFA [12])
CCOC(=O)C1(C)CC(c2cc(-n3c(OC)nc(C(F)(F)F)cc3=O)c(F)cc2Cl)=NO1 (racemic) [Compound 11, Ethyl 3-[2-chloro-4-fluoro-5-[2-methoxy-6-oxo-4-(trifluoromethyl)pyrimidin-1-yl]phenyl]-5-methyl-4H-isoxazole-5-carboxylate] | 100 | 100 | 100 | 80 | 80 | 100 | 100 | 100 | 100 | 100 | 100 | 100 | 100 | 100 | 100
CCOC(=O)[C@@]1(C)CC(c2cc(-n3c(OC)nc(C(F)(F)F)cc3=O)c(F)cc2Cl)=NO1 [11 (R-enantiomer), Ethyl (5R)-3-[2-chloro-4-fluoro-5-[2-methoxy-6-oxo-4-(trifluoromethyl)pyrimidin-1-yl]phenyl]-5-methyl-4H-isoxazole-5-carboxylate] | 10 | 90 | 50 | 70 | 10 | 90 | 100 | 100 | 100 | 100 | 100 | 90 | 100 | 100 | 80
CCOC(=O)[C@]1(C)CC(c2cc(-n3c(OC)nc(C(F)(F)F)cc3=O)c(F)cc2Cl)=NO1 [11 (S-enantiomer), ethyl (5S)-3-[2-chloro-4-fluoro-5-[2-methoxy-6-oxo-4-(trifluoromethyl)pyrimidin-1-yl]phenyl]-5-methyl-4H-isoxazole-5-carboxylate] | 100 | 100 | 90 | 80 | 40 | 100 | 100 | 100 | 100 | 100 | 100 | 100 | 100 | 100 | 100

From patent publication US20260015342A1, “HERBICIDAL PYRIMIDINONE DERIVATIVES” (SYNGENTA CROP PROTECTION AG, priority 2022, published 2026)
